# Experimental data reported in patent US10144746B2 (GLOBAL BLOOD THERAPEUTICS, INC., priority 2015, dated 2018).
# Target: Human plasma kallikrein (Homo sapiens (Human), UniProt P03952)
# Assay: In vitro plasma kallikrein inhibition assay (chromogenic substrate D-Pro-Phe-Arg-pNa, absorbance at 405 nm, IC50 determination)
# Format: biochemical
# Details: read-out: KLKB1 pIC50 (converted)
# Sequence of Human plasma kallikrein (P03952 391-638): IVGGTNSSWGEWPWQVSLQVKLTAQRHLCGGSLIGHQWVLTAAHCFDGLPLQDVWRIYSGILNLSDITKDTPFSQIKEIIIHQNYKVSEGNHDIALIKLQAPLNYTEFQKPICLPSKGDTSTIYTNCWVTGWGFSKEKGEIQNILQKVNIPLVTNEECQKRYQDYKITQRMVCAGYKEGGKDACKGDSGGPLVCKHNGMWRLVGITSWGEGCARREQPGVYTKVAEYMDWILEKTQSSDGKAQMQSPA
# Sequence of Human plasma kallikrein (P03952 20-390 partner): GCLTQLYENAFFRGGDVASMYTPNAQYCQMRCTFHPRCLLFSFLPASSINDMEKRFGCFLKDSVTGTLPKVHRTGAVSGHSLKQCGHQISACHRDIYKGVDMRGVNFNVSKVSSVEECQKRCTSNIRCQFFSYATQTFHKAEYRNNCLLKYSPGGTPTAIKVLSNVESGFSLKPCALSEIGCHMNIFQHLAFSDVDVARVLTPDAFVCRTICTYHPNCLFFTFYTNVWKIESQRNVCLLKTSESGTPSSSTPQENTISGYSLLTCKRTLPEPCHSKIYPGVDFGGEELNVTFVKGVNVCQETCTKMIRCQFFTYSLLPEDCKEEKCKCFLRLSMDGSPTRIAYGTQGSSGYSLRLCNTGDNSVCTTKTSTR
row,SMILES,IC50 [µM]
1,"Cc1cc(N)nc(C)c1CNC(=O)c1ccc2c(c1)[C@@H]1O[C@H]2c2ccc(-n3c(=O)ccn3C)cc21 (single isomer, unassigned) [Example 186]",1.82
2,"N=C(N)c1ccc(CNC(=O)c2ccc3c(c2)[C@@H]2O[C@H]3c3ccc(-c4ccccc4F)cc32)cc1 (single isomer, unassigned) [Example 187]",0.00174
3,"Cc1cc(N)nc(C)c1CNC(=O)c1ccc2c(c1)[C@@H]1O[C@H]2c2ccc(Oc3cccc(F)c3)cc21 (single isomer, unassigned) [Example 191]",0.105
4,"Cc1nc(N)cc(Cl)c1CNC(=O)c1ccc2c(c1)[C@@H]1O[C@H]2c2ccc(-c3ccc(F)cc3F)cc21 (single isomer, unassigned) [Example 192]",0.977
5,"Cc1cc(N)nc(C)c1CNC(=O)c1ccc2c(c1)[C@@H]1O[C@H]2c2ccc(C(=O)N3CC4CCC(C3)O4)cc21 (single isomer, unassigned) [Example 193]",1.58
6,"Cc1cc(N)nc(C)c1CNC(=O)c1ccc2c(c1)[C@@H]1O[C@H]2c2ccc(C(=O)N(C)c3ccccc3)cc21 (single isomer, unassigned) [Example 194]",1.66
7,"Cc1cc(N)nc(C)c1CNC(=O)c1ccc2c(c1)[C@@H]1O[C@H]2c2ccc(-c3cccc[n+]3[O-])cc21 (single isomer, unassigned) [Example 195]",1.05
8,"Cc1cc(N)nc(C)c1CNC(=O)c1ccc2c(c1)[C@@H]1O[C@H]2c2ccc(C(=O)N(C)c3ccc(F)cc3)cc21 (single isomer, unassigned) [Example 196]",4.68
9,"Cc1cc(C(=N)N)cc(C)c1CNC(=O)c1ccc2c(c1)[C@@H]1O[C@H]2c2ccc(-c3ccc(F)cc3F)cc21 (single isomer, unassigned) [Example 199]",0.000741
10,"N=C(N)c1ccc(CNC(=O)c2ccc3c(c2)[C@@H]2O[C@H]3c3ccc(-c4ccc(F)cc4)cc32)cc1 (single isomer, unassigned) [Example 201]",0.001
11,"Nc1noc2cc(CNC(=O)c3ccc4c(c3)[C@@H]3O[C@H]4c4ccc(-c5ccc(F)cc5F)cc43)ccc12 (single isomer, unassigned) [Example 205]",1
12,"N=C(N)c1ccc(CNC(=O)c2ccc3c(c2)[C@@H]2O[C@H]3c3ccc(Br)cc32)cc1 (single isomer, unassigned) [Example 206]",0.0372
13,"Nc1n[nH]c2cc(CNC(=O)c3ccc4c(c3)[C@@H]3O[C@H]4c4ccc(-c5ccc(F)cc5F)cc43)ccc12 (single isomer, unassigned) [Example 207]",4.9
14,"Cc1nc(N)cc(C(C)C)c1CNC(=O)c1ccc2c(c1)[C@@H]1O[C@H]2c2ccc(-c3ccc(F)cc3F)cc21 (single isomer, unassigned) [Example 208]",0.001
15,"N=C(N)c1ccc(CNC(=O)c2ccc3c(c2)[C@@H]2O[C@H]3c3ccc(-c4ccc(F)cc4F)cc32)cc1F (single isomer, unassigned) [Example 211]",0.0117
16,"Cc1cc(N)nc(C)c1CNC(=O)c1ccc2c(c1)[C@@H]1O[C@H]2c2ccc(-c3cccnc3C)cc21 (single isomer, unassigned) [Example 212]",0.0708
17,"COc1ncccc1-c1ccc2c(c1)[C@H]1O[C@@H]2c2ccc(C(=O)NCc3c(C)cc(N)nc3C)cc21 (single isomer, unassigned) [Example 213]",0.676
18,"Cc1cc(N)nc(C)c1CNC(=O)c1ccc2c(c1)[C@@H]1O[C@H]2c2ccc(-c3ccc(F)c[n+]3[O-])cc21 (single isomer, unassigned) [Example 214]",0.0832
19,"Cc1ccncc1-c1ccc2c(c1)[C@H]1O[C@@H]2c2ccc(C(=O)NCc3c(C)cc(N)nc3C)cc21 (single isomer, unassigned) [Example 215]",0.0794

row,SMILES,IC50 [µM]
1,"Cc1ccc(-c2ccc3c(c2)[C@H]2O[C@@H]3c3ccc(C(=O)NCc4cccc5c(N)nccc45)cc32)c(C#N)c1 (single isomer, unassigned) [Example 216]",0.0158
2,"N=C(N)c1ccc(CNC(=O)c2ccc3c(c2)[C@@H]2O[C@H]3c3ccc(-c4ccc(Cl)s4)cc32)cc1 (single isomer, unassigned) [Example 217]",0.002
3,"Cc1cc(N)nc(C)c1CNC(=O)c1ccc2c(c1)[C@@H]1O[C@H]2c2ccc(N(C)c3cccc(F)c3)cc21 (single isomer, unassigned) [Example 218]",0.0269
4,"C=Cc1cc(N)nc(C)c1CNC(=O)c1ccc2c(c1)[C@@H]1O[C@H]2c2ccc(-c3ccc(F)cc3F)cc21 (single isomer, unassigned) [Example 219]",0.017
5,"Cc1cc(N)nc(C)c1CNC(=O)c1ccc2c(c1)[C@@H]1O[C@H]2c2ccc(C(=O)c3ccccc3)cc21 (single isomer, unassigned) [Example 220]",0.012
6,"N=C(NC(=O)c1ccc2c(c1)[C@@H]1O[C@H]2c2ccc(-c3ccc(F)cc3F)cc21)c1ccc(N)cc1 (single isomer, unassigned) [Example 221]",10
7,"Cc1nc(N)cc(C2=CCOCC2)c1CNC(=O)c1ccc2c(c1)[C@@H]1O[C@H]2c2ccc(-c3ccc(F)cc3F)cc21 (single isomer, unassigned) [Example 222]",0.0282
8,"Cc1ccc(-c2ccc3c(c2)[C@H]2O[C@@H]3c3ccc(C(=O)NCc4ccc(C(=N)N)cc4)cc32)o1 (single isomer, unassigned) [Example 223]",0.0339
9,"Cc1cc(N)nc(C)c1CNC(=O)c1ccc2c(c1)[C@@H]1O[C@H]2c2ccc(Cn3ccccc3=O)cc21 (single isomer, unassigned) [Example 224]",0.001
10,"Nc1nccc2c(CNC(=O)c3ccc4c(c3)[C@@H]3O[C@H]4c4ccc(C(=O)c5ccccc5)cc43)cccc12 (single isomer, unassigned) [Example 226]",0.0363
11,"C=C(C)c1cc(N)nc(C)c1CNC(=O)c1ccc2c(c1)[C@@H]1O[C@H]2c2ccc(-c3ccc(F)cc3F)cc21 (single isomer, unassigned) [Example 227]",0.012
12,"Cc1cc(N)nc(C)c1CNC(=O)c1ccc2c(c1)[C@@H]1O[C@H]2c2ccc(C(=O)c3cccc(F)c3)cc21 (single isomer, unassigned) [Example 228]",0.012
13,"Cc1cc(N)nc(C)c1CNC(=O)c1ccc2c(c1)[C@@H]1O[C@H]2c2ccc(NC(=O)c3ccccc3)cc21 (single isomer, unassigned) [Example 229]",10
14,"CCN(c1cccc(F)c1)c1ccc2c(c1)[C@H]1O[C@@H]2c2ccc(C(=O)NCc3c(C)cc(N)nc3C)cc21 (single isomer, unassigned) [Example 230]",0.012
15,"N=C(N)c1ccc(CNC(=O)c2ccc3c(c2)[C@@H]2O[C@H]3c3ccc(Oc4cccc(F)c4)cc32)cc1 (single isomer, unassigned) [Example 231]",0.0339
16,"N=C(N)c1ccc(CNC(=O)c2ccc3c(c2)[C@@H]2O[C@H]3c3ccc(N4CC5CCC(C4)O5)cc32)cc1 (single isomer, unassigned) [Example 232]",0.0389
17,"CCc1ccc2c(c1)[C@H]1O[C@@H]2c2ccc(C(=O)NCc3ccc(C(=N)N)cc3)cc21 (single isomer, unassigned) [Example 233]",0.00708
18,"CCN(C(=O)c1ccccc1)c1ccc2c(c1)[C@H]1O[C@@H]2c2ccc(C(=O)NCc3c(C)cc(N)nc3C)cc21 (single isomer, unassigned) [Example 234]",10
